Test results reported in the NIST ThermoML archive (doi:10.1016/j.fluid.2006.09.025).
± gives the expanded uncertainty stated by the source.

Assay: osmotic coefficient (dimensionless); mn = molality of the nth substance listed, in mol/kg
Conditions: 298.15 K, Liquid, isopiestic method

CCCCCC[N+](CC)(CC)CC.[I-] [hexyltriethylammonium iodide] + O
Conditions	osmotic coefficient
m1 = 0.0542	0.9221 ± 0.0039
m1 = 0.0712	0.9085 ± 0.0046
m1 = 0.0797	0.9098 ± 0.0045
m1 = 0.0926	0.8987 ± 0.0051
m1 = 0.0971	0.8963 ± 0.0053
m1 = 0.107	0.8864 ± 0.0057
m1 = 0.1332	0.8718 ± 0.0065
m1 = 0.1502	0.8528 ± 0.0074
m1 = 0.1517	0.8493 ± 0.0076
m1 = 0.153	0.8537 ± 0.0073
m1 = 0.2121	0.819 ± 0.0092
m1 = 0.232	0.808 ± 0.0097
m1 = 0.2494	0.798 ± 0.01
m1 = 0.2836	0.775 ± 0.011
m1 = 0.3308	0.751 ± 0.013
m1 = 0.3473	0.744 ± 0.013
m1 = 0.3651	0.737 ± 0.013
m1 = 0.3804	0.724 ± 0.014
m1 = 0.3878	0.713 ± 0.016
m1 = 0.4518	0.678 ± 0.016
m1 = 0.5224	0.648 ± 0.018
m1 = 0.5588	0.633 ± 0.018
m1 = 0.5839	0.624 ± 0.019
m1 = 0.6237	0.609 ± 0.02
m1 = 0.7289	0.582 ± 0.021
m1 = 0.8228	0.555 ± 0.022
m1 = 0.9203	0.531 ± 0.024
m1 = 1.101	0.487 ± 0.026
m1 = 1.171	0.475 ± 0.026
m1 = 1.275	0.454 ± 0.027
m1 = 1.512	0.421 ± 0.029
m1 = 1.84	0.375 ± 0.031
m1 = 1.94	0.366 ± 0.032
m1 = 2.04	0.356 ± 0.032
m1 = 2.24	0.337 ± 0.033
m1 = 2.344	0.329 ± 0.034

CC[N+](CC)(CC)CC.[I-] [tetraethylammonium iodide] + O
Conditions	osmotic coefficient
m1 = 0.0519	0.8954 ± 0.0053
m1 = 0.0633	0.8781 ± 0.0061
m1 = 0.086	0.8544 ± 0.0073
m1 = 0.1019	0.8443 ± 0.0078
m1 = 0.1134	0.834 ± 0.0084
m1 = 0.1748	0.806 ± 0.0098
m1 = 0.1826	0.8 ± 0.01
m1 = 0.1916	0.795 ± 0.01
m1 = 0.2018	0.794 ± 0.01
m1 = 0.2218	0.784 ± 0.011
m1 = 0.2718	0.758 ± 0.012
m1 = 0.3586	0.722 ± 0.014
m1 = 0.3999	0.714 ± 0.014
m1 = 0.4738	0.685 ± 0.016
m1 = 0.5329	0.674 ± 0.017
m1 = 0.5415	0.67 ± 0.017
m1 = 0.5698	0.662 ± 0.017
m1 = 0.6153	0.655 ± 0.017
m1 = 0.7181	0.631 ± 0.018
m1 = 0.8456	0.613 ± 0.02
m1 = 0.8512	0.609 ± 0.02
m1 = 0.8671	0.606 ± 0.02
m1 = 0.9377	0.597 ± 0.02
m1 = 1.032	0.583 ± 0.021
m1 = 1.076	0.578 ± 0.021
m1 = 1.109	0.574 ± 0.021
m1 = 1.151	0.566 ± 0.022
m1 = 1.224	0.558 ± 0.022
m1 = 1.309	0.553 ± 0.022
m1 = 1.373	0.546 ± 0.023
m1 = 1.391	0.543 ± 0.023
m1 = 1.403	0.544 ± 0.023
m1 = 1.429	0.54 ± 0.023
m1 = 1.442	0.537 ± 0.023

CCCCCCC[N+](CC)(CC)CC.[I-] [heptyltriethylammonium iodide] + O
Conditions	osmotic coefficient
m1 = 0.0575	0.8694 ± 0.0066
m1 = 0.077	0.84 ± 0.0081
m1 = 0.0876	0.829 ± 0.0086
m1 = 0.1022	0.815 ± 0.0093
m1 = 0.1082	0.805 ± 0.0099
m1 = 0.1205	0.787 ± 0.011
m1 = 0.1533	0.757 ± 0.012
m1 = 0.1727	0.742 ± 0.013
m1 = 0.175	0.736 ± 0.013
m1 = 0.1805	0.723 ± 0.015
m1 = 0.2592	0.67 ± 0.017
m1 = 0.2917	0.642 ± 0.018
m1 = 0.3136	0.635 ± 0.018
m1 = 0.3583	0.614 ± 0.019
m1 = 0.4282	0.58 ± 0.021
m1 = 0.4477	0.577 ± 0.021
m1 = 0.4858	0.553 ± 0.022
m1 = 0.5029	0.548 ± 0.023
m1 = 0.5121	0.54 ± 0.023
m1 = 0.5894	0.52 ± 0.024
m1 = 0.6973	0.486 ± 0.026
m1 = 0.787	0.45 ± 0.028
m1 = 0.8401	0.434 ± 0.028
m1 = 0.89	0.427 ± 0.029
m1 = 1.105	0.384 ± 0.031
m1 = 1.341	0.34 ± 0.033
m1 = 1.504	0.325 ± 0.034
m1 = 1.803	0.297 ± 0.035
m1 = 1.921	0.289 ± 0.036
m1 = 2.205	0.263 ± 0.037
m1 = 2.515	0.253 ± 0.037
m1 = 2.79	0.247 ± 0.038
m1 = 2.96	0.24 ± 0.038
m1 = 3	0.242 ± 0.038

CC[N+](C)(CC)CC.[I-] [methyltriethylammonium iodide] + O
Conditions	osmotic coefficient
m1 = 0.0478	0.739 ± 0.013
m1 = 0.0576	0.714 ± 0.014
m1 = 0.0766	0.673 ± 0.016
m1 = 0.0902	0.648 ± 0.018
m1 = 0.0995	0.632 ± 0.018
m1 = 0.1505	0.564 ± 0.022
m1 = 0.1558	0.556 ± 0.022
m1 = 0.1631	0.548 ± 0.023
m1 = 0.1721	0.539 ± 0.023
m1 = 0.1879	0.523 ± 0.024
m1 = 0.2254	0.488 ± 0.026
m1 = 0.2898	0.44 ± 0.028
m1 = 0.324	0.421 ± 0.029
m1 = 0.3742	0.391 ± 0.03
m1 = 0.4177	0.371 ± 0.032
m1 = 0.4237	0.368 ± 0.032
m1 = 0.4447	0.36 ± 0.032
m1 = 0.4801	0.347 ± 0.033
m1 = 0.5528	0.321 ± 0.034
m1 = 0.6505	0.294 ± 0.035
m1 = 0.6561	0.295 ± 0.035
m1 = 0.6693	0.291 ± 0.035
m1 = 0.7286	0.28 ± 0.036
m1 = 0.8032	0.265 ± 0.037
m1 = 0.8482	0.259 ± 0.037
m1 = 0.8851	0.255 ± 0.037
m1 = 0.9205	0.249 ± 0.037
m1 = 0.9981	0.241 ± 0.038
m1 = 1.101	0.232 ± 0.038
m1 = 1.2	0.226 ± 0.039
m1 = 1.22	0.224 ± 0.039
m1 = 1.25	0.223 ± 0.039
m1 = 1.29	0.22 ± 0.039
m1 = 1.37	0.219 ± 0.039

CCCCC[N+](CC)(CC)CC.[I-] [pentyltriethylammonium iodide] + O
Conditions	osmotic coefficient
m1 = 0.0539	0.9283 ± 0.0036
m1 = 0.0703	0.9203 ± 0.004
m1 = 0.0798	0.9092 ± 0.0046
m1 = 0.0922	0.903 ± 0.0049
m1 = 0.0976	0.8923 ± 0.0054
m1 = 0.1065	0.891 ± 0.0055
m1 = 0.132	0.8799 ± 0.006
m1 = 0.1471	0.8712 ± 0.0065
m1 = 0.1482	0.8694 ± 0.0065
m1 = 0.1501	0.8697 ± 0.0066
m1 = 0.2076	0.8364 ± 0.0083
m1 = 0.2284	0.821 ± 0.0091
m1 = 0.2454	0.811 ± 0.0095
m1 = 0.2742	0.802 ± 0.0099
m1 = 0.3148	0.789 ± 0.011
m1 = 0.3295	0.784 ± 0.011
m1 = 0.3456	0.778 ± 0.011
m1 = 0.3579	0.77 ± 0.012
m1 = 0.3614	0.765 ± 0.013
m1 = 0.4108	0.746 ± 0.013
m1 = 0.4718	0.718 ± 0.014
m1 = 0.498	0.711 ± 0.015
m1 = 0.514	0.709 ± 0.015
m1 = 0.5434	0.699 ± 0.015
m1 = 0.6238	0.68 ± 0.016
m1 = 0.6938	0.658 ± 0.017
m1 = 0.7814	0.625 ± 0.019
m1 = 0.9005	0.595 ± 0.02
m1 = 0.9578	0.58 ± 0.021
m1 = 1.015	0.571 ± 0.022
m1 = 1.199	0.531 ± 0.024
m1 = 1.359	0.508 ± 0.025
m1 = 1.465	0.485 ± 0.026
m1 = 1.549	0.468 ± 0.027
m1 = 1.688	0.447 ± 0.028

CC[N+](CC)(CC)C(C)C.[I-] [triethylisopropylammonium iodide] + O
Conditions	osmotic coefficient
m1 = 0.0475	0.9777 ± 0.0011
m1 = 0.057	0.9749 ± 0.0013
m1 = 0.0757	0.9713 ± 0.0014
m1 = 0.0889	0.968 ± 0.0016
m1 = 0.0981	0.9643 ± 0.0018
m1 = 0.1471	0.9579 ± 0.0021
m1 = 0.1528	0.9563 ± 0.0022
m1 = 0.1597	0.9537 ± 0.0023
m1 = 0.1682	0.9525 ± 0.0024
m1 = 0.1838	0.9459 ± 0.0027
m1 = 0.2194	0.9398 ± 0.003
m1 = 0.2793	0.9267 ± 0.0037
m1 = 0.3108	0.918 ± 0.0042
m1 = 0.3581	0.9067 ± 0.0049
m1 = 0.408	0.88 ± 0.0094
m1 = 0.4103	0.884 ± 0.0093
m1 = 0.4322	0.8735 ± 0.0066
m1 = 0.4691	0.8589 ± 0.0073
m1 = 0.5492	0.825 ± 0.0091
m1 = 0.6807	0.762 ± 0.014
m1 = 0.6907	0.751 ± 0.013
m1 = 0.7103	0.74 ± 0.014
m1 = 0.8103	0.691 ± 0.016
m1 = 0.9083	0.662 ± 0.017
m1 = 0.9858	0.631 ± 0.019
m1 = 1.081	0.589 ± 0.021
m1 = 1.111	0.587 ± 0.021
m1 = 1.22	0.559 ± 0.022
m1 = 1.326	0.546 ± 0.023
m1 = 1.388	0.541 ± 0.023
m1 = 1.402	0.539 ± 0.023
m1 = 1.428	0.535 ± 0.023
m1 = 1.448	0.533 ± 0.023
m1 = 1.462	0.53 ± 0.024

CCCC[N+](CC)(CC)CC.[I-] [butyltriethylammonium iodide] + O
Conditions	osmotic coefficient
m1 = 0.0475	0.9775 ± 0.0011
m1 = 0.0571	0.9735 ± 0.0013
m1 = 0.076	0.9668 ± 0.0017
m1 = 0.0898	0.9582 ± 0.0021
m1 = 0.0991	0.9545 ± 0.0023
m1 = 0.1499	0.94 ± 0.0037
m1 = 0.1571	0.93 ± 0.0037
m1 = 0.1638	0.9298 ± 0.0035
m1 = 0.1729	0.9266 ± 0.0037
m1 = 0.189	0.9199 ± 0.0041
m1 = 0.2281	0.9038 ± 0.0049
m1 = 0.293	0.8831 ± 0.0059
m1 = 0.3288	0.8677 ± 0.0067
m1 = 0.38	0.8544 ± 0.0074
m1 = 0.4288	0.837 ± 0.0085
m1 = 0.435	0.834 ± 0.0085
m1 = 0.4582	0.824 ± 0.0092
m1 = 0.5067	0.795 ± 0.01
m1 = 0.5888	0.77 ± 0.012
m1 = 0.7326	0.708 ± 0.016
m1 = 0.7462	0.695 ± 0.016
m1 = 0.76	0.691 ± 0.016
m1 = 0.855	0.655 ± 0.018
m1 = 0.9926	0.606 ± 0.02
m1 = 1.093	0.569 ± 0.022
m1 = 1.132	0.562 ± 0.022
m1 = 1.178	0.554 ± 0.022
m1 = 1.305	0.523 ± 0.024
m1 = 1.503	0.481 ± 0.026
m1 = 1.645	0.456 ± 0.027
m1 = 1.681	0.45 ± 0.028
m1 = 1.738	0.439 ± 0.028
m1 = 1.782	0.433 ± 0.029
m1 = 1.811	0.428 ± 0.029
